Biological target: T1, α-amylase from porcine pancreatic (Sus scrofa, UniProt P00690)
T1 sequence (P00690 16-511): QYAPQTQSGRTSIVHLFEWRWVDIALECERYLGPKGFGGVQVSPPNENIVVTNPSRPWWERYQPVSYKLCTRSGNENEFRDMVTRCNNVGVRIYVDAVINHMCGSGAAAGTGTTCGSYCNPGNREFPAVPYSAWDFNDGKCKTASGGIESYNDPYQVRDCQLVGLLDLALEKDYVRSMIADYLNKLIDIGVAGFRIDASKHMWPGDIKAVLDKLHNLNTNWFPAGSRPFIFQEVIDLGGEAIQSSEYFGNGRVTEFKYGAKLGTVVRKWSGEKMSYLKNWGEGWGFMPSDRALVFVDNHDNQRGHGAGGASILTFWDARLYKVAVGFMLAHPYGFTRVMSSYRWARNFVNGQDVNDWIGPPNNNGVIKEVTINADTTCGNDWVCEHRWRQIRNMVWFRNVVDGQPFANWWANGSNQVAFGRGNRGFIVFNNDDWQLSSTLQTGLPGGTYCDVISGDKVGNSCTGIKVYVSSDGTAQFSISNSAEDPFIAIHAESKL
Test: In vitro α-amylase inhibition assay
Type: biochemical
Settings: not given

IC50 | SMILES
13.3 ± 0.3 µM | Cc1ccc([N+](=O)[O-])cc1S(=O)(=O)N/N=C1\C(=O)Nc2ccc([N+](=O)[O-])cc21 [Compound 4]
13.2 ± 0.2 µM | O=C1Nc2ccc([N+](=O)[O-])cc2/C1=N/NS(=O)(=O)c1ccc([N+](=O)[O-])cc1 [Compound 5]
13.2 ± 0.3 µM | Cc1ccc([N+](=O)[O-])cc1S(=O)(=O)N/N=C1\C(=O)Nc2ccccc21 [Compound 9]
13.2 ± 0.2 µM | O=C1Nc2ccccc2/C1=N/NS(=O)(=O)c1ccc([N+](=O)[O-])cc1 [Compound 10]
14.9 ± 0.2 µM | Cc1ccc([N+](=O)[O-])cc1S(=O)(=O)N/N=C1\C(=O)Nc2ccc(Cl)cc21 [Compound 15, (Z)-N'-(5-chloro-2-oxoindolin-3-ylidene)-2-methyl-5-nitrobenzenesulfonohydrazide]

Same assay, conditions: read-out: IC50 ± SEM Alpha-amylase; porcine pancreatic α-amylase, starch

IC50 | SMILES
12.3 ± 20 µM | O=C1Nc2ccc(Cl)cc2/C1=N/NS(=O)(=O)c1ccc([N+](=O)[O-])cc1 [Compound 16, (Z)-N'-(5-chloro-2-oxoindolin-3-ylidene)-4-nitrobenzenesulfonohydrazide]

— article PMC10157847 (ACS Omega, 2023)
